One assay has as its system A549 cells. The conditions noted are these: cited from earlier work.
Assay [1] in a line: Potency comparison of separated enantiomers (test not specified). Particulars: (R)- versus (S)-enantiomer separated on Chiralpak AD. As for the experimental part:
An enriched 3:1 R:S mixture of chromenone enantiomers was separated into its pure enantiomers by chiral chromatography with the following conditions: Column—Chiralpak AD, 250×4.6 mm (Diacel Inc.). Sample—22.5 mg/ml in 1:1 i-PrOH:hexanes. Conditions—40 min at isocratic 50% i-PrOH in Hexanes, (S)-enantiomer elutes at 18.35 min, (R)-enantiomer elutes at 26.87 min.

A word on the GI50: it is the concentration that inhibits growth by half. As to `COc1cccc2c1C(=O)c1c(O)c3c(c(O)c1C2=O)C[C@@](O)(C(=O)CO)C[C@@H]3O[C@H]1C[C@H](N)[C@H](O)[C@H](C)O1` [doxorubicin], in the assay with A549 cells, the GI50 was 63 nM.
Regarding `Cc1ccc(C(=O)N(CCCN)[C@@H](c2oc3cc(Cl)ccc3c(=O)c2Cc2ccccc2)C(C)C)cc1` (single isomer, unassigned) [Example 2 (R)-enantiomer], the “relative potency of enantiomers” value in assay [1] is “significantly more potent than the (S)-enantiomer”.
As for `CC(=O)O[C@H]1C(=O)[C@@]2(C)[C@H]([C@H](OC(=O)c3ccccc3)[C@]3(O)C[C@H](OC(=O)[C@H](O)[C@@H](NC(=O)c4ccccc4)c4ccccc4)C(C)=C1C3(C)C)[C@]1(OC(C)=O)CO[C@@H]1C[C@@H]2O` [paclitaxel], the GI50 in the assay on A549 cells is 4 nM.
For the compound `O=c1[nH]cc(F)c(=O)[nH]1` [5-fluorouracil], in the assay with A549 cells, the GI50 is 1000 nM.
For the compound `NC(=O)NO` [hydroxyurea], the GI50 in the assay on A549 cells is 500000 nM.

Values taken from patent publication US8633236B2, “Compounds, compositions and methods” (Cytokinetics, Inc., priority 2002, dated 2014).
